Data on 71 molecules can be found in PubChem BioAssay AID1985 (Southern Research Specialized Biocontainment Screening …, 2009).

This experiment deals with S. Typhi PhoP-promoter GFP reporter, fluorescence, 4 h. The experiment in a line: modified counter assay using GFP fluorescence, PhoP regulon inhibitor project, dose response (AID 1985).

Molecules are shown by their SMILES. Values joined by “and” are separate entries in the source; they are usually repeats but may differ in a detail not shown here. Equal entries are not always repeated.

The IC50 is the concentration that inhibits the measured activity by half.

Turning to `COc1ccc(/C=N/Nc2cc(C)nc3c(C)cccc23)cc1`, the IC50 is 37.2 µM.
With `CC(C)(c1ccccc1)c1ccc(OCCCNCCO)cc1` the figure was 93.5 µM; with `CCCCOc1ccc(NC2=NC3(CCCCC3)N=C(N)N2)cc1`, 20.1 µM.
With `O=C(/C=C/c1cc(Br)ccc1O)c1ccco1` the figure was 68.1 µM; with `O=C(Nc1ccc(Cl)cc1)c1cccs1`, 105 µM; with `C#CCOCCOCCOCCNc1nc(N2CCN(C(=O)[C@H](Cc3cc4ccccc4[nH]3)n3cc([C@@H](N)C(C)CC)nn3)CC2)nc(N2CCN(C(=O)[C@H](Cc3cc4ccccc4[nH]3)n3cc([C@@H](N)Cc4ccc(O)cc4)nn3)CC2)n1` (stereo partly specified), 60 µM.
With `CCCCOc1ccc(Br)cc1CSC(=N)N` the figure was 56.5 µM; with `COc1cc2c(cc1O)[C@H](Cc1ccc(Oc3cc(C[C@@H]4NCCc5cc(OC)c(O)cc54)ccc3O)cc1)NCC2`, 56.9 µM; with `NC1=NC[C@H](CC2CCCCC2)N1CCc1cc(C(F)(F)F)cc(C(F)(F)F)c1`, 37.6 µM.
As to `Cc1cc(=O)[nH]c(-n2nc(C)cc2C)n1`, the half-maximal inhibitory concentration (IC50) is 67.5 µM.
Take `CCOc1ccc(OCCSc2nc3ccccc3[nH]2)cc1`: the IC50 was 106 µM.
The same measure for `COc1cccc(/C=N/NC(=O)CSCC(=O)Nc2ccccc2)c1O`: 92.5 µM.
Regarding `CCN1c2ccccc2NC2N=C(OC)C(c3ccccc3)C21` (stereo unspecified), the IC50 was 55.8 µM.
`Cc1ccc2c(c1)N/C(=C(\C=C(/Cl)[N+](=O)[O-])[N+](=O)[O-])N2`: the IC50 is 81.1 µM.
With `CC1COc2c(N3CCN(C)CC3)c(F)cc3c(=O)c(C(=O)O)cn1c23` (stereo unspecified) the figure was < 0.23 µM; with `c1ccc(Nc2nc(NCc3ccco3)c3ccccc3n2)cc1`, 24 µM; with `CCN(CC)CCn1c(=N)n(CC(O)COc2cccc(C)c2)c2ccccc21` (stereo unspecified), 85.2 µM.
Consider `OC(CNCCc1ccc(Cl)cc1Cl)COc1ccccc1` (stereo unspecified), for which the IC50 was 71.7 µM.
The same measure for `CCOC(=O)c1ccc(CNCc2ccc(Br)cc2)cc1`: 53.8 µM.
`Cc1ccc(Nc2nc(N)c3ccccc3n2)cc1Cl`: the half-inhibitory concentration (IC50) was 68.5 µM.
`O=C(Nc1ccc([N+](=O)[O-])cc1Cl)c1cc(Cl)ccc1O`: the half-inhibitory concentration (IC50) is 76 µM.
The same measure for `Nc1cc(Cl)c2nonc2c1[N+](=O)[O-]`: 19.6 µM; for `Oc1ccc(N=Nc2ccc(Br)cc2)c(O)c1`: 87.8 µM.
The same measure for `CC(C)(C)/C(O)=C/c1nc2cc(Cl)ccc2oc1=O`: 11.2 µM.
With `Cc1cc(C2CCCCC2)n(O)c(=O)c1`, the IC50 is 20.9 µM.
On to `COc1ccc(CNc2ncnc3c2[nH]c2ccccc23)cc1`, for which the 50% inhibitory concentration (IC50) was 59.2 µM.
The same measure for `Cc1ccc(OCC(=O)N/N=C\c2c(C)[nH]n(-c3ccccc3)c2=O)c([N+](=O)[O-])c1`: 53.6 µM; for `CCn1cc(C(=O)O)c(=O)c2cnc(N3CCNCC3)nc21`: 113 µM.
The same measure for `COc1ccc2c(C(=O)CCl)c[nH]c2c1`: 36.3 µM; for `CS(=O)(=O)c1ccc([C@@H](O)[C@@H](CO)NC(=O)C(Cl)Cl)cc1`: 19.7 µM.
Consider `COc1ccc(C(=O)NNC(=S)NC(=O)c2ccccc2)cc1`, for which the IC50 is 82.5 µM.
With `C#CCOCCOCCOCCNc1nc(N2CCN(C(=O)CCCCCCCCCCNC(=O)[C@H](CCCCN)n3cc(C)nn3)CC2)nc(N2CCN(C(=O)CCCCCCCCCCNC(=O)[C@@H]([C@H](C)CC)n3cc(CCCCCN)nn3)CC2)n1` the figure was 79 µM; with `CN(C)[C@@H]1C(=O)C(C(N)=O)=C(O)[C@@]2(O)C(=O)C3=C(O)c4c(O)cccc4[C@@](C)(O)C3[C@H](O)C12` (stereo partly specified), 2.99 µM; with `C/C(=N\NC(=O)c1ccccc1O)c1cccs1`, 89.3 µM.
In the case of `CCCCN(CCCC)C(=O)c1cn(CC)c2cc(N3CCN(C)CC3)c(F)cc2c1=O`, the IC50 was 7.43 µM.
With `O=C(CNC(=O)c1cccc(F)c1)N/N=C/c1ccc([N+](=O)[O-])s1` the figure was 23.8 µM; with `CCCCCCCCCCn1c2c(c(=N)c3c1CCC3)CCC2`, 144 µM.
For the molecule `CCN1/C(=C/C(C)=C/c2sc3ccccc3[n+]2CC)Sc2ccccc21`, the half-maximal inhibitory concentration (IC50) was 12.6 µM.
As to `CC(C)Oc1ccc(Cc2cnc(N)nc2N)cc1`, the IC50 is 50.3 µM.
The same measure for `[O-][n+]1c2c(c3c4non(O)c4ccc31)CCCC2`: 130 µM; for `NC(N)=N/N=C/c1ccc(OCc2ccccc2Cl)cc1`: 33.4 µM.
With `Cc1cc([N+](=O)[O-])cc(/C=N\NC(=O)C2COc3ccccc3O2)c1O` (stereo unspecified) the figure was 23.3 µM; with `O=C(CCN1CCN(c2ccccc2)CC1)N/N=C/c1ccc([N+](=O)[O-])o1`, 70.2 µM; with `CCCCCOc1ccc(CSC(=N)N)cc1[N+](=O)[O-]`, 20.9 µM.
With `CN(C)CCCN1c2ccccc2Sc2ccc(Cl)cc21` the figure was 88.1 µM and 81.4 µM.
As to `O=C(/C=C/c1ccccc1Cl)c1ccccc(=O)c1O`, the 50% inhibitory concentration (IC50) is 37.9 µM.
The same measure for `Cn1ncnc2c(=O)n(C)c(=O)nc1-2`: 0.741 µM.
The same measure for `CC(C(=O)NC1CCS(=O)(=O)C1)N1C(=O)/C(=C/c2ccc(Cl)cc2)SC1=S` (stereo unspecified): 18.3 µM; for `Cc1cc(Br)ccc1OCCCCNCCO`: 61.8 µM; for `Cc1ccc(-c2c[n+](CC(=O)Nc3nc(-c4ccccc4)cs3)c3n2CCC3)cc1`: 90.4 µM.
Turning to `O=C(Nc1nnc(-c2ccccn2)o1)c1cccc(Cl)c1`, the IC50 is 107 µM.
With `Cc1ccc(C(=O)N/C(=C\c2ccc(-c3ccc(Br)cc3)o2)C(=O)NCCCN(C)C)cc1` the figure was 66.3 µM; with `CCn1cc(C(=O)O)c(=O)c2cc3c(cc21)OCO3`, 52.1 µM; with `O=C(Cc1ccccc1)N/N=C/c1cc(Br)cc(Cl)c1O`, 44.9 µM.
Turning to `Cc1cc(C)n(/N=C/c2cc([N+](=O)[O-])ccc2O)c(=O)c1`, the half-inhibitory concentration (IC50) is 70.5 µM.
The same measure for `CCn1cc(C(=O)NCCO)c(=O)c2cc(F)c(N3CCN(C)CC3)cc21`: 16.3 µM; for `O=C1c2ccccc2C2=Nc3ccccc3SC(c3ccccc3F)C12` (stereo unspecified): 21 µM; for `Oc1ccc(C[C@@H]2CNCCN2CCCCC2CCCCC2)cc1`: 74.3 µM.
As to `CCCCCCCCCCCCCCCC[n+]1ccc(C(N)=O)cc1`, the IC50 is 15.4 µM.
The same measure for `CN1CCN(CCCN2c3ccccc3Sc3ccc(C(F)(F)F)cc32)CC1`: 124 µM.
As to `CCn1cc(C(=O)NCC(C)C)c(=O)c2cc(F)c(N3CCN(C)CC3)cc21`, the IC50 is 30.6 µM.
For the molecule `O=C(CC(=O)c1cc(Cl)ccc1O)c1ccccc1`, the half-maximal inhibitory concentration (IC50) was 128 µM.
As for `O=C(Oc1ccccc1)c1cc2ccccc2o1`, the IC50 was 76.2 µM.
Take `C[C@H]1O[C@@H](n2cc(F)c(=O)[nH]c2=O)[C@H](O)[C@@H]1O`: the concentration for half-maximal inhibition (IC50) is 13.2 µM.
The same measure for `OCCNCc1cc(Br)ccc1OCc1ccc(Cl)cc1`: 121 µM; for `Fc1cccc(Nc2c3c(nc4ccccc24)CCC3)c1`: 126 µM.
The same measure for `COc1cc(CNCCO)cc(Cl)c1OCc1ccc(Cl)cc1Cl`: 39 µM; for `CN(Cc1ccccc1)CC(O)COc1ccc(CNCc2ccc(Cl)s2)cc1` (stereo unspecified): 39.1 µM; for `Cc1c(Cl)cccc1Nc1nc(NCCO)c2ccccc2n1`: 38.1 µM.
In the case of `O=C(/C=C/c1ccc(F)cc1)NC(=S)NNC(=O)c1cnccn1`, the half-maximal inhibitory concentration (IC50) was 20.4 µM.
With `COc1ccc(/C=C/c2cc(-c3ccc(C)cc3)o[n+]2C)cc1` the figure was 100 µM.
